For 20 compounds, EC50 results are on record in patent publication US12655130B2 (ASSEMBLY BIOSCIENCES, INC., priority 2020, dated 2026).

The subject of this experiment is HBV viral load (viral production from HepAD38 cells). In words: Activity of test compounds on viral production from HepAD38 cells (viral load by qPCR of HBV core sequence). The experiment is classed as cell-based. Conditions: viral load lowering, 5 days, qPCR of supernatant, read-out: VL HepAD38 EC50 range. On the procedure: Assay Measuring Activity of Test Compounds on Viral Production from HepAD38 Cells
HepAD38 cells grown in a T-150 flask (Corning, cat #: 430825) with Growth Medium (DMEM/F12 (1:1) (Hyclone, cat #: SH30023.02), 1× Pen/Strep (Invitrogen, cat #: 15140-122), 10% FBS (Tissue Culture Biologics, cat #: 101), 250 μg/mL G418 (Alfa Aesar, cat #: J62671), 1 μg/mL Tetracycline (Teknova, cat #: T3320)) were detached with 0.25% trypsin-EDTA (Invitrogen, cat #: 25200-056). Tetracycline-free treatment medium (15 mL DMEM/F12 (1:1) 1× Pen/step, with 2% FBS, Tet-system approved (Clontech, cat #: 631106) were then added to mix, transferred into a 50 ml conical tube (Falcon, cat #: 21008-918) and spun at 1300 rpm for 5 min. Pelleted cells were then re-suspended/washed with 50 mL of 1×DPBS (Invitrogen, cat #: 14190-136) 2 times and 50 mL treatment medium twice. HepAD38 cells were then re-suspended with 10 mL of treatment medium, syringed and counted. Wells of 96-well clear bottom TC plate (Corning, cat #: 3904) were seeded at 50,000 cells/well in 180 μL of treatment medium, and 20 μL of either 10% DMSO (Sigma, cat #: D4540) as controls or a 10× solution of test compounds in 10% DMSO in treatment media was added for a final compound concentration starting at 10 μM, and plates were incubated in 5% CO2 incubator at 37° C. for 5 days.
Subsequently viral load production was assayed by quantitative PCR (qPCR) of the HBV core sequence. PCR reaction mixture containing forward primers HBV-f 5′-CTGTGCCTTGGGTGGCITT-3′ (IDT DNA), Reverse primers HBV-r 5′-[…]-3′ (IDT DNA), Fluorescent TaqMan™ Probes HBV-probe 5′-FAM/AGCTCCAAA/ZENMITCTITATAAGGGTCGATGTC/3IABkFQ-3′ (IDT DNA), 10 μL/well of PerfeCTa® qPCR ToughMix® (Quanta Biosciences, Cat #: 95114-05K), and 6 μL/well of DEPC water (Alfa Aesar, cat #: J62087) was prepared. Four μL of supernatant was added to 16 μL of the reaction mixture in a qPCR plate (Applied Biosytems, Cat #: 4309849), sealed with a film (Applied Biosystems, Cat #: 4311971), centrifuged for a few seconds, and subsequently run on an Applied Biosystems VIIA7. The PCR mixture was incubated at 45° C. for 5 min, then 95° C. for 10 min, followed by 40 cycles of 10 seconds at 95° C. and 20 seconds at 60° C. Viral load was quantified against known HBV DNA standards by using ViiA™ 7 Software. Viral load in the supernatant from wells with treated cells were compared against viral load in supernatant from DMSO control wells (3 per plate). Cell viability assay was performed with CellTiter-Glo Luminescent Cell Viability Assay (Promega, cat #: G7573) with modification. Mixed appropriate amount of CellTiter-Glo (CTG) 1×DPBS in a 1:1 ratio, added 100 uL of the mixture to each well followed completely removal of all supernatant in each well without touching cell surface. Incubated the plate at room temperature for 10 min on an orbital shaker, and then read the plate with a plate reader (TECAN M1000 or Envision). EC50 or CC50 values were calculated through curve-fitting of the four-parameter nonlinear-logistic-regression model (GraphPad Prism or Dotmatics). CC50 values were all >10 μM.
(In general: In qPCR the cycle at which signal appears reflects the starting amount.)

Setting [1] is: Hepatitis B virus, HePAD38, 120 h.

Where two headings read alike, the source gives them in different places.

As a reminder, the EC50 is the midpoint of the concentration-response curve. Regarding `Cn1cnc(C2CC3CC(O)(Cc4cc(C(F)(F)F)nn4C)CC3C2)c1C(=O)Nc1ccc(F)c(Cl)c1` (centres unmarked) [Example 155, N-(3-Chloro-4-fluorophenyl)-4-(5-hydroxy-5-((1-methyl-3-(trifluoromethyl)-1H-pyrazol-5-yl)methyl)octahydropentalen-2-yl)-1-methyl-1H-imidazole-5-carboxamide], under setting [1], the EC50 was under 10 nM.

Take `CN(Cc1ccccc1)c1nc(C2CC3CC(O)CC3C2)c(C(=O)Nc2ccc(F)c(Cl)c2)n1C` (centres unmarked) [Example 48, 2-(benzyl(methyl)amino)-N-(3-chloro-4-fluorophenyl)-4-(5-hydroxyoctahydropentalen-2-yl)-1-methyl-1H-imidazole-5-carboxamide]: the EC50 under setting [1] fell in the range of 50 to 500 nM.

As for `CC#Cc1cc(C2(O)CC3CC(c4ncn(C)c4C(=O)Nc4ccc(F)c(Cl)c4)CC3C2)n(C)n1` (centres unmarked) [Example 56, N-(3-Chloro-4-fluorophenyl)-4-(5-hydroxy-5-(1-methyl-3-(prop-1-yn-1-yl)-1H-pyrazol-5-yl)octahydropentalen-2-yl)-1-methyl-1H-imidazole-5-carboxamide], the EC50 under setting [1] was under 10 nM.

As for `CC(O)c1cc(C2(O)CC3CC(c4ncn(C)c4C(=O)Nc4ccc(F)c(Cl)c4)CC3C2)n(C)n1` (centres unmarked) [Example 60, N-(3-Chloro-4-fluorophenyl)-4-(5-hydroxy-5-(3-(1-hydroxyethyl)-1-methyl-1H-pyrazol-5-yl)octahydropentalen-2-yl)-1-methyl-1H-imidazole-5-carboxamide], the EC50 was under 10 nM.

Take `Cn1cnc(C2CC3CC(O)(CO)CC3C2)c1C(=O)Nc1ccc(F)c(Cl)c1` (single isomer, unassigned) [Example 20, N-(3-Chloro-4-fluorophenyl)-4-(5-hydroxy-5-(hydroxymethyl)octahydro-pentalen-2-yl)-1-methyl-1H-imidazole-5-carboxamide]: the EC50 was under 10 nM.

For `Cn1cnc(C2CC3CC(O)(c4c(F)c(N)nn4C)CC3C2)c1C(=O)Nc1ccc(F)c(Cl)c1` (centres unmarked) [Example 52, 4-(5-(3-Amino-4-fluoro-1-methyl-1H-pyrazol-5-yl)-5-hydroxyoctahydropentalen-2-yl)-N-(3-chloro-4-fluorophenyl)-1-methyl-1H-imidazole-5-carboxamide], under setting [1], the EC50 is under 10 nM.

On to `Cn1cnc(C2CC3CC(O)(c4cc(NS(C)(=O)=O)nn4C)CC3C2)c1C(=O)Nc1ccc(F)c(Cl)c1` (centres unmarked) [Example 198, N-(3-Chloro-4-fluorophenyl)-4-(5-hydroxy-5-(1-methyl-3-(methylsulfonamido)-1H-pyrazol-5-yl)octahydropentalen-2-yl)-1-methyl-1H-imidazole-5-carboxamide], for which the EC50 under setting [1] was 10 to 50 nM.

`Cn1cnc(C2CC3CC(O)(c4cc([N+](=O)[O-])nn4C)CC3C2)c1C(=O)Nc1ccc(F)c(Cl)c1` (single isomer, unassigned) [Example 50, N-(3-Chloro-4-fluorophenyl)-4-(5-hydroxy-5-(1-methyl-3-nitro-1H-pyrazol-5-yl)octahydropentalen-2-yl)-1-methyl-1H-imidazole-5-carboxamide]: the EC50 under setting [1] was under 10 nM.

On to `Cn1cnc(C2CC3CC(O)(c4c(Cl)c(N)nn4C)CC3C2)c1C(=O)Nc1ccc(F)cc1` (centres unmarked) [Example 103, 4-(5-(3-amino-4-chloro-1-methyl-1H-pyrazol-5-yl)-5-hydroxyoctahydropentalen-2-yl)-N-(4-fluorophenyl)-1-methyl-1H-imidazole-5-carboxamide], for which the EC50 under setting [1] is under 10 nM.

Regarding `CC(=O)Nc1cc(C2(O)CC3CC(c4ncn(C)c4C(=O)Nc4ccc(F)c(Cl)c4)CC3C2)n(C)n1` (centres unmarked) [Example 163, 4-(5-(3-Acetamido-1-methyl-1H-pyrazol-5-yl)-5-hydroxyoctahydropentalen-2-yl)-N-(3-chloro-4-fluorophenyl)-1-methyl-1H-imidazole-5-carboxamide], the EC50 under setting [1] is under 10 nM.

As for `Cn1cc(C2(O)CC3CC(c4ncn(C)c4C(=O)Nc4ccc(F)c(Cl)c4)CC3C2)c(C#N)n1` (centres unmarked) [Example 180, N-(3-Chloro-4-fluorophenyl)-4-(5-(3-cyano-1-methyl-1H-pyrazol-4-yl)-5-hydroxyoctahydropentalen-2-yl)-1-methyl-1H-imidazole-5-carboxamide], the EC50 under setting [1] was under 10 nM.

As for `[2H]C([2H])([2H])C1(O)CC2CC(c3ncn(C)c3C(=O)Nc3ccc(F)c(Cl)c3)CC2C1` (single isomer, unassigned) [Example 80, N-(3-Chloro-4-fluorophenyl)-4(5-hydroxy-5-(methyl-d3)octahydropentalen-2-yl)-1-methyl-1H-imidazole-5-carboxamide], the concentration giving a half-maximal response (EC50) under setting [1] fell in the range of 50 to 500 nM.

For the compound `Cn1cnc(C2CC3CC(O)(c4c(F)c(NCC(C)(C)O)nn4C)CC3C2)c1C(=O)Nc1ccc(F)c(Cl)c1` (centres unmarked) [Example 63, N-(3-Chloro-4-fluorophenyl)-4-(5-(4-fluoro-3-((2-hydroxy-2-methylpropyl)amino)-1-methyl-1H-pyrazol-5-yl)-5-hydroxyoctahydropentalen-2-yl)-1-methyl-1H-imidazole-5-carboxamide], the EC50 under setting [1] is under 10 nM.

`Cn1cnc(C2CC3CC(O)(c4cc(N)nn4C)CC3C2)c1C(=O)Nc1ccc(F)c(Cl)c1` (centres unmarked) [Example 51, 4-(5-(3-Amino-1-methyl-1H-pyrazol-5-yl)-5-hydroxyoctahydropentalen-2-yl)-N-(3-chloro-4-fluorophenyl)-1-methyl-1H-imidazole-5-carboxamide]: the EC50 under setting [1] was under 10 nM.

With `CC(O)c1nn(C)cc1C1(O)CC2CC(c3ncn(C)c3C(=O)Nc3ccc(F)c(Cl)c3)CC2C1` (single isomer, unassigned) [Example 188, N-(3-Chloro-4-fluorophenyl)-4-(5-hydroxy-5-(3-(1-hydroxyethyl)-1-methyl-1H-pyrazol-4-yl)octahydropentalen-2-yl)-1-methyl-1H-imidazole-5-carboxamide], the EC50 under setting [1] was under 10 nM.

Turning to `Cn1cc(F)c(C2(O)CC3CC(c4ncn(C)c4C(=O)Nc4ccc(F)c(Cl)c4)CC3C2)n1` (centres unmarked) [Example 136, N-(3-chloro-4-fluorophenyl)-4-(5-(4-fluoro-1-methyl-1H-pyrazol-3-yl)-5-hydroxyoctahydropentalen-2-yl)-1-methyl-1H-imidazole-5-carboxamide], the EC50 under setting [1] is under 10 nM.

`CCn1nc(NCC(C)(C)O)c(F)c1C1(O)CC2CC(c3ncn(C)c3C(=O)Nc3ccc(F)c(Cl)c3)CC2C1` (centres unmarked) [Example 215, N-(3-Chloro-4-fluorophenyl)-4-(5-(1-ethyl-4-fluoro-3-((2-hydroxy-2-methylpropyl)amino)-1H-pyrazol-5-yl)-5-hydroxyoctahydropentalen-2-yl)-1-methyl-1H-imidazole-5-carboxamide]: the concentration for a half-maximal effect (EC50) under setting [1] was under 10 nM.

On to `Cn1cnc(C2CC3CC(O)(c4[nH]ncc4Cl)CC3C2)c1C(=O)Nc1ccc(F)c(Cl)c1` (centres unmarked) [Example 143, 4-(5-(4-Chloro-1H-pyrazol-5-yl)-5-hydroxyoctahydropentalen-2-yl)-N-(3-chloro-4-fluorophenyl)-1-methyl-1H-imidazole-5-carboxamide], for which the EC50 under setting [1] was under 10 nM.

For `Cn1cnc(C2CC3CC(O)(Cn4ccc(Cl)n4)CC3C2)c1C(=O)Nc1ccc(F)c(Cl)c1` (centres unmarked) [Example 101, 4-(5-((3-Chloro-1H-pyrazol-1-yl)methyl)-5-hydroxyoctahydropentalen-2-yl)-N-(3-chloro-4-fluorophenyl)-1-methyl-1H-imidazole-5-carboxamide], the EC50 under setting [1] is under 10 nM.

On to `Cn1cnc(C2CC3CC(O)(c4ccccn4)CC3C2)c1C(=O)Nc1ccc(F)c(Cl)c1` (centres unmarked) [Example 9, N-(3-Chloro-4-fluorophenyl)-4-(5-hydroxy-5-(pyridin-2-yl)octahydropentalen-2-yl)-1-methyl-1H-imidazole-5-carboxamide], for which the EC50 under setting [1] is under 10 nM.
